Assay results taken from patent publication US20030118597A1 (priority 2001, published 2003).

How the values were obtained:
[1] = preliminary data, animal model
[2] = test system: hypophyseal adrenal system; conditions: cited from earlier work
[3] = test system: microsomal cyclooxygenase system; conditions: animal models; cited from earlier work

Row | Compound | allergen component of the venom [1] | potency of released cortisol relative to hydrocortisone [2] | strength relative to Indomethacine [3]
1 | CC[C@H](C)[C@H](NC(=O)CN)C(=O)NCC(=O)N[C@@H](C)C(=O)N[C@H](C(=O)N[C@@H](CC(C)C)C(=O)N[C@@H](CCCCN)C(=O)N[C@H](C(=O)N[C@@H](CC(C)C)C(=O)N[C@H](C(=O)N[C@H](C(=O)NCC(=O)N[C@@H](CC(C)C)C(=O)N1CCC[C@H]1C(=O)N[C@@H](C)C(=O)N[C@@H](CC(C)C)C(=O)N[C@H](C(=O)N[C@@H](CO)C(=O)N[C@@H](Cc1c[nH]c2ccccc12)C(=O)N[C@H](C(=O)N[C@@H](CCCCN)C(=O)N[C@@H](CCCNC(=N)N)C(=O)N[C@@H](CCCCN)C(=O)N[C@@H](CCCNC(=N)N)C(=O)N[C@@H](CCC(N)=O)C(=O)N[C@@H](CCC(N)=O)C(N)=O)[C@@H](C)CC)[C@@H](C)CC)[C@@H](C)O)[C@@H](C)O)C(C)C)C(C)C [Melittin] | major allergen component | 100 times | –
2 | Adolapin [Ado lapin] | – | – | 70 times
3 | Phospholipase A2 | major allergen component | – | –
